The record followed here is patent publication US11077090B2, “Compounds and compositions and uses thereof” (Sunovion Pharmaceuticals Inc., priority 2016, dated 2021).

In general, minimal effective dose refers to the smallest amount tested that counted as effective.

The assay relates to compound-treated mice. The experiment in a line: Neuropharmacological assay (SmartCube): behavioral activity signature and minimal effective dose. The class given is in vivo. Conditions: for minimal effective dose: Mus musculus, ip, MED = dose having 50% or more total activity, read-out: Potency: minimal effective dose (MED), binned; for AD: ADHD (probability of activity signature) / AG: analgesic (probability of activity signature) / AX: anxiolytic (probability of activity signature) / CE: cognitive enhancer (probability of activity signature) / DP: anti-depressant (probability of activity signature) / MS: mood stabilizer (probability of activity signature) / PS: anti-psychotic (probability of activity signature) / SD: sedative hypnotic (probability of activity signature) / UN: uncharacterized CNS activity (probability of activity signature): i.p. 15 min before test, most efficacious dose(s). Summed up: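 Video-recorded behavior is compared algorithmically against a reference-compound database, yielding class probabilities (best dose reported). Compounds given i.p. in NMP/PEG/propylene glycol 15 min pre-test at 3 doses; potency as MED, the dose (mpk, range usually 0.3–30) reaching ≥50% total activity.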

The structures appear in SMILES notation.

For the compound `CCCN[C@H]1COCc2ccccc21.Cl` [Example 265], the minimal effective dose was in the range of 3 to 10 mg/kg, the “AD: ADHD (probability of activity signature)” value (shortened to “AD: ADHD”) is given as “+ (LOQ ≤ + <5%)”, the “AG: analgesic (probability of activity signature)” value (“AG: analgesic” below) is “+ (LOQ ≤ + <5%)” and the “AX: anxiolytic (probability of activity signature)” value (shortened to “AX: anxiolytic”) is recorded as “+ (LOQ ≤ + <5%)”. In addition, the “CE: cognitive enhancer (probability of activity signature)” value (from here on “CE: cognitive enhancer”) is given as “+ (LOQ ≤ + <5%)”, the “DP: anti-depressant (probability of activity signature)” value (“DP: anti-depressant” for short) is “++ (5% ≤ ++ <25%)”, the “MS: mood stabilizer (probability of activity signature)” value (from here on “MS: mood stabilizer”) was “+ (LOQ ≤ + <5%)” and the “PS: anti-psychotic (probability of activity signature)” value (from here on “PS: anti-psychotic”) is “+ (LOQ ≤ + <5%)”. The “SD: sedative hypnotic (probability of activity signature)” value (“SD: sedative hypnotic” for short) is on record as “++ (5% ≤ ++ <25%)” and the “UN: uncharacterized CNS activity (probability of activity signature)” value (“UN: uncharacterized CNS activity” below) is given as “+ (LOQ ≤ + <5%)”.
For `C#CCN[C@H]1COCc2ccccc21.Cl` [Example 266], the minimal effective dose lay in the range of 3 to 10 mg/kg, the “AD: ADHD” value was “+ (LOQ ≤ + <5%)”, the “AG: analgesic” value is “+ (LOQ ≤ + <5%)” and the “AX: anxiolytic” value is recorded as “+ (LOQ ≤ + <5%)”. Moreover, the “CE: cognitive enhancer” value is “+ (LOQ ≤ + <5%)”, the “DP: anti-depressant” value is reported as “+ (LOQ ≤ + <5%)”, the “MS: mood stabilizer” value is recorded as “++ (5% ≤ ++ <25%)” and the “PS: anti-psychotic” value is “+ (LOQ ≤ + <5%)”. Further, the “SD: sedative hypnotic” value is reported as “++ (5% ≤ ++ <25%)” and the “UN: uncharacterized CNS activity” value is reported as “+ (LOQ ≤ + <5%)”.
Regarding `C#CCN[C@@H]1c2ccccc2CO[C@H]1C.Cl` [Example 267], the minimal effective dose was < 3 mg/kg, the “AD: ADHD” value is listed as “+ (LOQ ≤ + <5%)”, the “AG: analgesic” value is “+ (LOQ ≤ + <5%)” and the “AX: anxiolytic” value is on record as “+ (LOQ ≤ + <5%)”. Moreover, the “CE: cognitive enhancer” value is “+ (LOQ ≤ + <5%)”, the “DP: anti-depressant” value is reported as “++ (5% ≤ ++ <25%)”, the “MS: mood stabilizer” value is “++ (5% ≤ ++ <25%)” and the “PS: anti-psychotic” value was “+ (LOQ ≤ + <5%)”. The “SD: sedative hypnotic” value is reported as “++ (5% ≤ ++ <25%)” and the “UN: uncharacterized CNS activity” value was “++ (5% ≤ ++ <25%)”.
Regarding `CCCN[C@H]1c2ccccc2CO[C@@H]1C.Cl` [Example 268], the minimal effective dose was 3 to 10 mg/kg, the “AD: ADHD” value is on record as “++ (5% ≤ ++ <25%)”, the “AG: analgesic” value is reported as “+ (LOQ ≤ + <5%)” and the “AX: anxiolytic” value was “++ (5% ≤ ++ <25%)”. Moreover, the “CE: cognitive enhancer” value is reported as “+ (LOQ ≤ + <5%)”, the “DP: anti-depressant” value is on record as “+ (LOQ ≤ + <5%)”, the “MS: mood stabilizer” value was “++ (5% ≤ ++ <25%)” and the “PS: anti-psychotic” value was “+++ (25% ≤ +++ <50%)”. Besides, the “SD: sedative hypnotic” value is on record as “++ (5% ≤ ++ <25%)” and the “UN: uncharacterized CNS activity” value is on record as “++ (5% ≤ ++ <25%)”.
`CCCN[C@@H]1c2ccccc2CO[C@@H]1C.Cl` [Example 269]: the minimal effective dose was 3 to 10 mg/kg, the “AD: ADHD” value is recorded as “+ (LOQ ≤ + <5%)”, the “AG: analgesic” value is “+ (LOQ ≤ + <5%)” and the “AX: anxiolytic” value is listed as “+ (LOQ ≤ + <5%)”. For the same compound, the “CE: cognitive enhancer” value is listed as “+ (LOQ ≤ + <5%)”, the “DP: anti-depressant” value is recorded as “++ (5% ≤ ++ <25%)”, the “MS: mood stabilizer” value is listed as “++ (5% ≤ ++ <25%)” and the “PS: anti-psychotic” value was “+ (LOQ ≤ + <5%)”. Moreover, the “SD: sedative hypnotic” value is listed as “++ (5% ≤ ++ <25%)” and the “UN: uncharacterized CNS activity” value was “++ (5% ≤ ++ <25%)”.
